Experiments:
[1] = system: A549 cells; assay: Subcellular distribution of Pt (mitochondria, lysosomes, nucleus, residual); details: A549, 10 μM, 4 h, ICP-MS
Excerpt: (§1) One of the main factors to determine the mechanism of cytotoxic activity of a metal-based drug is its ability to cross the cell membrane and to accumulate in cancer cells. Therefore, with the aim of correlating cellular accumulation, we investigated the cellular uptake of the platinum complexes in A549, NCI-H1299 cancer cells and L02 normal cell. […] Moreover, the amount of Pt in the different subcellular compartments of cancer cells was quantified to fetch a more detailed picture of Pt-based complexes intracellular localization (Figure 1C).
(§2) The cells were seeded in 6-well plates overnight and then incubated with 10 μM drugs at 37°C in standard culture conditions. After 4 h, the cells were washed with PBS buffer (pH 7.4) for three times, and harvested by trypsinization. […] The organelles were then isolated via differential centrifugation. All cellular compartments (mitochondria, lysosomes and nucleus) were isolated from A549 and NCI-H1299 cancer cells for direct comparative purposes. The supernatant phases discarded during the isolation of nuclei, lysosomes and mitochondria procedures were collected and formed the “residual” fraction. An aliquot of crude lysate after homogenization, nuclear, mitochondrial (pellet lysed via freeze and thaw cycles followed by 20 min incubation in ultrasonic bath), lysosomal and residual fraction was each used for protein quantification using the Bradford method. The harvested cells were concentrated and digested by nitric acid for the ICP measurement. The cell numbers were counted before the digested. For the measurement of Pt concentration in cellular DNA in A549, NCI-H1299 cancer cells, DNA was isolated by applying Genomic DNA Mini Preparation Kit (Beyotime, China), and Pt content in DNA was analyzed by ICP.

[2] = system: NCI-H1299 cells; assay: as above; details: NCI-H1299, 10 μM, 4 h, ICP-MS
Excerpt: as §1, §2

[3] = system: A549 cells; assay: Annexin V-FITC/PI apoptosis assay (flow cytometry); type: cell-based, human; details: A549, 50 μM for 24 h (figure legend and method: 10 μM)
Method: (§3) Apoptosis is a crucial programmed death form of aging or damaged cells. […] To further explore the impact of complex 3 on long-term clonogenic survival, colony formation assay was performed.
(§4) Annexin V-FITC apoptosis detection kit (Keygen, Jiangsu, China) assay was performed according to the manufacturer's protocol. […] Then the cells were collected, resuspended in binding buffer (pH 7.5, 10 mM HEPES, 2.5 mM CaCl2 and 140 mM NaCl), incubated with Annexin V-FITC and then PI for 10 min in the dark at room temperature, the processed cells were analyzed by flow cytometry (FACSCalibur, Becton Dickinson) and a computer station running Cell-Quest software. (BD Biosciences, Franklin Lakes, NJ).

[4] = system: NCI-H1299 cells; assay: Annexin V-FITC/PI apoptosis assay (flow cytometry); type: cell-based, human; details: NCI-H1299, 50 μM for 24 h (figure legend and method: 10 μM)
Method: as §3, §4

[5] = system: A549 cells; assay: Cell-cycle analysis (PI staining, flow cytometry); type: cell-based, human; details: A549, 10 μM
Method: (§5) With the untreated A549 and NCI-H1299 cells, the percentage of cells in the G1 phase was at 21.29%, 18.96% with 15.28%, 22.94% in the G2/M phase, respectively.
(§6) Cell cycle was analyzed by flow cytometry as described previously. Data were analyzed with FlowJo software (TreeStar, Inc.).

[6] = system: NCI-H1299 cells; assay: Cell-cycle analysis (PI staining, flow cytometry); type: cell-based, human; details: NCI-H1299, 10 μM
Method: as §5, §6

[7] = system: A549 xenograft tumors; details: for tumor growth inhibition rate: 5 mg/kg i.v., complex 3 once every three days, oxaliplatin twice a week, tumor weight at end
Method: To evaluate the anti-tumor effect of complex 3 in vivo, an xenografts nude mice model of A549 cancer cells was performed. […] At the end of treatments, the tumor weight was measured to detect the antitumor activity of these measured groups. […] Because platinum-based drugs are well known for their toxic effects on the mean bodyweights of treated animals, the toxicity of complex 3 in the body weights of mice was assayed. […] The mice treated with the tested complex 3 were selected for histological analyses.
Thirty-five nude mice (BALB/c) with body weight range from 18–22 g, were supplied by Shanghai Laboratory Animal Center, China Academy of Sciences. Experimental protocols were in accordance with National Institutes of Health regulations and approved by the Institutional Animal Care and Use Committee. All animals were randomly divided into 5 groups. The A549 single-cell suspension in PBS (1×10^7 cells per mouse) was injected subcutaneously into the right oxter of nude mice. […] The control group was administered glucose. The tumor growth was monitored by measuring the perpendicular diameter of the tumor using calipers every two days and calculated according to the formula:
Tumor volume (mm^3) = 0.5 × length × width^2
Growth curves were plotted using the average tumor volume within each experimental group at the set time points. The whole group of mice was sacrificed after the last treatment, then tumor weight was evaluated as the antitumor activity of the corresponding groups, and the kidneys, livers and tumors were excised for immunohistochemistry analysis. The body weight and physical state of the mice were measured simultaneously as an indicator of systemic toxicity.

Structure (SMILES): CC(C)C[NH+]1[C@@H]2CCCC[C@H]2[NH+](CC(C)C)[Pt-2]12[O]C(=O)CC(=O)[O]2 (some centres unmarked) [Complex 3]
- share of intracellular Pt, nucleus [1]: 79%
- share of intracellular Pt, nucleus [2]: 72%
- early and median apoptotic cells [3]: 0.94%
- early and median apoptotic cells [4]: 9.77%
- late apoptotic cells [4]: 27.51%
- cell cycle phase blocked [5]: G2/M phases of A549 and NCI-H1299 were blocked strikingly
- cell cycle phase blocked [6]: G2/M phases of A549 and NCI-H1299 were blocked strikingly
- percentage of cells in the G1 phase ([6]; 72 h, untreated 18.96%): 60.29%
- tumor volumes ([7]; 5 mg/kg i.v. once every three days): significantly decreased
- tumor growth inhibition rate [7]: 67.96%
- expressions of LC3 in tumor tissues ([7]; immunoblotting): increased expressions of LC3 in tumor tissues
- bodyweights of mice during treatment ([7]; mouse, in vivo): increase of bodyweights

Structure (SMILES): O=C1[O][Pt]2([NH][C@@H]3CCCC[C@H]3[NH]2)[O]C1=O [Oxaliplatin, oxaliplatin, reference compound]
- share of intracellular Pt, nucleus [1]: 63%
- share of intracellular Pt, nucleus [2]: 57%
- early and median apoptotic cells [3]: 29.50%
- early and median apoptotic cells [4]: 10.27%
- late apoptotic cells [4]: 15.98%
- cell cycle phase blocked [5]: S phases were blocked
- cell cycle phase blocked [6]: S phases were blocked
- tumor growth inhibition rate [7]: 34.48%
